A word on the IC50: it is the concentration that inhibits the measured activity by half.

These results are taken from patent US9771370B2, “Compounds for the inhibition of indoleamine-2,3-dioxygenase” (Merck Patent GmbH, priority 2014, dated 2017).

Recombinant human IDO, sequence (P14902 whole entry): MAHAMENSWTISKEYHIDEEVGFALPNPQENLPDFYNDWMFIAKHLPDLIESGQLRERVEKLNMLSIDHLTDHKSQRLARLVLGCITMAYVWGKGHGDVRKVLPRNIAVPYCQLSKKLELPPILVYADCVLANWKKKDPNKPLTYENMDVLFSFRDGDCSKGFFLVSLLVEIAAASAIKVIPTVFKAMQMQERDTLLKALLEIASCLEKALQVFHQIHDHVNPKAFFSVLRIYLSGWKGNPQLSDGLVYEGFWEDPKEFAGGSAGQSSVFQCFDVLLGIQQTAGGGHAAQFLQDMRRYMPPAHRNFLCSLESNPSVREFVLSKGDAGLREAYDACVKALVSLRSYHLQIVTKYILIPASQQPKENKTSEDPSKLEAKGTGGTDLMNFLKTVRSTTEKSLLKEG

This test concerns the target Recombinant human IDO (Homo sapiens, UniProt P14902). The experiment in a line: Bridge-IT tryptophan fluorescence assay of human IDO-1 inhibition. The class given is biochemical. Conditions: recombinant human IDO 7.5 nM, L-tryptophan. In short, it runs like this: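 Two protocol variants: 100 μM L-Trp for 90 min at 37 °C, or 30 min enzyme–compound pre-incubation at 25 °C, then 50 μM L-Trp for 60 min at 25 °C. Reaction stopped in Bridge-IT solution A for 30 min at 30 °C.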
On to `OC(CC1c2nc(Cl)ccc2-c2cncn21)C1CCCCC1` (single isomer, unassigned) [Compound 55c, 2-[10-chloro-4,6,9-triazatricyclo[6.4.0.0^[2,6]]dodeca-1(8),2,4,9,11-pentaen-7-yl]-1-cyclohexylethan-1-ol], for which the IC50 was over 1000 nM. The result for `CC(C)(C)C(=O)N1CCC(C(O)CC2c3ncccc3-c3cncn32)CC1` (single isomer, unassigned) [Compound 88c, 1-[4-[1-hydroxy-2-[4,6,9-triazatricyclo[6.4.0.0^[2,6]]dodeca-1(8),2,4,9,11-pentaen-7-yl]ethyl]piperidin-1-yl]-2,2-dimethylpropan-1-one] reads over 1000 nM; that for `COc1ccc2c(n1)C(CC(O)C1CCC3(CC1)CC3)n1cncc1-2` (stereo not shown) [Compound 53a, 2-[10-methoxy-4,6,9-triazatricyclo[6.4.0.0^[2,6]]dodeca-1(8),2,4,9,11-pentaen-7-yl]-1-[spiro[2.5]octan-6-yl]ethan-1-ol], 100 to 1000 nM.

Take `OC(CC1c2ncccc2-c2cncn21)C1(F)CCCCC1` (stereo not shown) [Compound 109b, 1-(1-fluorocyclohexyl)-2-[4,6,9-triazatricyclo[6.4.0.0^[2,6]]dodeca-1(8),2,4,9,11-pentaen-7-yl]ethan-1-ol]: the IC50 was 100 to 1000 nM. As to `CC(C)(O)C1CCC(F)(CCC2c3ccccc3-c3cncn32)CC1` (single isomer, unassigned) [Compound 61a, 2-[4-fluoro-4-[2-[5H-imidazo[4,3-a]isoindol-5-yl]ethyl]cyclohexyl]propan-2-ol], the IC50 was over 1000 nM.

With `OC(CC1c2ncccc2-c2cncn21)C1(F)CCCCC1` (single isomer, unassigned) [Compound 109a, 1-(1-fluorocyclohexyl)-2-[4,6,9-triazatricyclo[6.4.0.0^[2,6]]dodeca-1(8),2,4,9,11-pentaen-7-yl]ethan-1-ol], the IC50 was over 1000 nM.

In the case of `OC(CC1c2nc(Cl)ccc2-c2cncn21)C1CCC(F)(F)CC1` (single isomer, unassigned) [Compound 52a, 2-[10-chloro-4,6,9-triazatricyclo[6.4.0.0^[2,6]]dodeca-1(8),2,4,9,11-pentaen-7-yl]-1-(4,4-difluorocyclohexyl)ethan-1-ol], the IC50 lay in the range of 100 to 1000 nM. The result for `O[C@H]1CC[C@](F)(CC[C@H]2c3ccccc3-c3cncn32)CC1` [Compound 14b, (1S,4s)-4-(2-((S)-5H-imidazo[5,1-a]isoindol-5-yl)ethyl)-4-fluorocyclohexan-1-ol] reads under 100 nM; that for `NC(=O)C1CCC(F)(CCC2c3ccccc3-c3cncn32)CC1` (single isomer, unassigned) [Compound 79d, 4-fluoro-4-[2-[5H-imidazo[4,3-a]isoindol-5-yl]ethyl]cyclohexane-1-carboxamide], under 100 nM; that for `OC1CCC(C(F)(F)CC2c3ccccc3-c3cncn32)CC1` (mixture of isomers) [Compound 74b, 4-(1,1-difluoro-2-[5H-imidazo[4,3-a]isoindol-5-yl]ethyl)cyclohexan-1-ol], 100 to 1000 nM. The result for `COc1cccc2c1-c1cncn1C2CCC1(F)CCCCC1` (single isomer, unassigned) [Compound 42a, 5-(2-(1-fluorocyclohexyl)ethyl)-9-methoxy-5H-imidazo[5,1-a]isoindole] reads over 1000 nM; that for `OC1CCC(F)(CCC2c3c(F)ccc(F)c3-c3cncn32)CC1` (single isomer, unassigned) [Compound 38d, 4-(2-(6,9-difluoro-5H-imidazo[5,1-a]isoindol-5-yl)ethyl)-4-fluorocyclohexanol], under 100 nM. The value for `FC1(F)CCC(F)(CCC2c3c(Cl)cccc3-c3cncn32)CC1` (single isomer, unassigned) [Compound 72a, 6-chloro-5-[2-(1,4,4-trifluorocyclohexyl)ethyl]-5H-imidazo[4,3-a]isoindole] was over 1000 nM. Regarding `FC1(CCC2c3c(Cl)cccc3-c3cncn32)CCC2(CC1)CC2` (single isomer, unassigned) [Compound 91b, 6-chloro-5-(2-[6-fluorospiro[2.5]octan-6-yl]ethyl)-5H-imidazo[4,3-a]isoindole], the concentration for half-maximal inhibition (IC50) is over 1000 nM. The value for `CC1(C)CCC(C(O)CC2c3nc(F)ccc3-c3cncn32)CC1` (single isomer, unassigned) [Compound 25d, 1-(4,4-dimethylcyclohexyl)-2-[10-fluoro-4,6,9-triazatricyclo[6.4.0.0^[2,6]]dodeca-1(8),2,4,9,11-pentaen-7-yl]ethan-1-ol] was over 1000 nM. Take `COc1cccc2c1-c1cncn1C2CCC1(F)CCCCC1` (single isomer, unassigned) [Compound 42b, 5-(2-(1-fluorocyclohexyl)ethyl)-9-methoxy-5H-imidazo[5,1-a]isoindole]: the IC50 was 100 to 1000 nM. The result for `OC1CCC(C(O)CC2c3c(ccnc3F)-c3cncn32)CC1` (mixture of isomers) [Compound 4a, 4-(2-[9-fluoro-4,6,10-triazatricyclo[6.4.0.0^[2,6]]dodeca-1(8),2,4,9,11-pentaen-7-yl]-1-hydroxyethyl) cyclohexan-1-ol] reads over 1000 nM; that for `OC1CCC(F)(CCC2c3ncccc3-c3cncn32)CC1` (mixture of isomers) [Compound 7a, 4-fluoro-4-(2-{4,6,9-triazatricyclo[6.4.0.0^[2,6]]dodeca-1(8),2,4,9,11-pentaen-7-yl}ethyl)cyclohexan-1-ol], over 1000 nM.

For the compound `FC(CC1c2ccccc2-c2cncn21)C1CCCCC1` (mixture of isomers) [Compound 108a, 5-[2-cyclohexyl-2-fluoroethyl]-5H-imidazo[4,3-a]isoindole], the IC50 lay in the range of 100 to 1000 nM. On to `CN(C)C(=O)C1CCC(F)(CCC2c3c(Cl)cccc3-c3cncn32)CC1` (single isomer, unassigned) [Compound 114d, 4-[2-[6-chloro-5H-imidazo[4,3-a]isoindol-5-yl]ethyl]-4-fluoro-N,N-dimethylcyclohexane-1-carboxamide], for which the IC50 was over 1000 nM.

With `OC1CCC(F)(CCC2c3ccccc3-c3cncn32)CC1` (single isomer, unassigned) [Compound 13a, 4-(2-(5H-imidazo[5,1-a]isoindol-5-yl)ethyl)-4-fluorocyclohexanol], the IC50 was over 1000 nM. The result for `OC(CC1c2nccc(F)c2-c2cncn21)C1CCCCC1` (single isomer, unassigned) [Compound 101c, 1-cyclohexyl-2-[12-fluoro-4,6,9-triazatricyclo[6.4.0.0^[2,6]]dodeca-1(8),2,4,9,11-pentaen-7-yl]ethan-1-ol] reads over 1000 nM; that for `FC1(F)CCC(F)(CCC2c3c(Cl)cccc3-c3cncn32)CC1` (single isomer, unassigned) [Compound 72b, 6-chloro-5-[2-(1,4,4-trifluorocyclohexyl)ethyl]-5H-imidazo[4,3-a]isoindole], 100 to 1000 nM.

As for `OC(CC1c2ncccc2-c2cncn21)C1CCCCC1` (single isomer, unassigned) [Compound 5a, 1-cyclohexyl-2-[4,6,9-triazatricyclo[6.4.0.0^[2,6]]dodeca-1(8),2,4,9,11-pentaen-7-yl]ethan-1-ol], the IC50 lay within 100 to 1000 nM. The value for `OC(CC1c2ncccc2-c2cncn21)C1CCOCC1` (single isomer, unassigned) [Compound 92b, 1-(oxan-4-yl)-2-[4,6,9-triazatricyclo[6.4.0.0^[2,6]]dodeca-1(8),2,4,9,11-pentaen-7-yl]ethan-1-ol] was over 1000 nM; that for `NC(=O)CC1CCC(F)(CCC2c3ccccc3-c3cncn32)CC1` (single isomer, unassigned) [Compound 112b, 2-[4-fluoro-4-[2-[5H-imidazo[4,3-a]isoindol-5-yl]ethyl]cyclohexyl]acetamide] was under 100 nM. The value for `Fc1cccc2c1C(CC(F)C1CCCCC1)n1cncc1-2` (single isomer, unassigned) [Compound 98b, 5-[2-cyclohexyl-2-fluoroethyl]-6-fluoro-5H-imidazo[4,3-a]isoindole] was under 100 nM; that for `FC1(CCC2c3ncccc3-c3cncn32)CCCCC1` (single isomer, unassigned) [Compound 18a, 7-[2-(1-fluorocyclohexyl)ethyl]-4,6,9-triazatricyclo[6.4.0.0^[2,6]]dodeca-1(8),2,4,9,11-pentaene] was 100 to 1000 nM.
